How the values were obtained:
[1] = Doxorubicin and doxorubicinol pharmacokinetics in plasma by LC/MS/MS; type: in vivo, dog; conditions: three dogs, highest VPA cohort (240 mg/kg/day), IV DOX
[2] = test system: dogs with spontaneous cancer
[3] = test system: treatment-naïve lymphoma; conditions: DOX alone, treatment-naïve lymphoma in dogs; cited from earlier work
[4] = test system: WBC and neutrophil counts; test: Complete blood counts for myelosuppression; type: in vivo, dog
[5] = Serum trough VPA concentration; type: in vivo, dog; conditions: 48 h after start of oral VPA, before fifth dose
[6] = test system: canine and human osteosarcoma cells; conditions: cited from earlier work
[7] = test system: acetylated histone H3 in PBMC; test: PBMC histone H3 acetylation by immunofluorescence; type: in vivo, dog; conditions: fourteen evaluable PBMC samples, data not shown
[8] = test system: human patients; conditions: cited from earlier work

With `COc1cccc2c1C(=O)c1c(O)c3c(c(O)c1C2=O)C[C@@](O)([C@@H](O)CO)C[C@@H]3O[C@H]1C[C@H](N)[C@H](O)[C@H](C)O1` [doxorubicinol] as the compound, how does the “PK of the major metabolite versus historical controls receiving DOX alone” value [1] read?
Its value is “no significant changes”.

Which Cardiotoxicity ([2]; VPA pre-treated dogs, not directly evaluated, cumulative DOX dose < 150 mg/m^2) does the source give for `COc1cccc2c1C(=O)c1c(O)c3c(c(O)c1C2=O)C[C@@](O)(C(=O)CO)C[C@@H]3O[C@H]1C[C@H](N)[C@H](O)[C@H](C)O1` [DOX, doxorubicin] here?
The Cardiotoxicity was “did not observe any obvious cardiotoxicity”.

What about the Reported remission rates [3] of the same compound?
Its Reported remission rates is 60-85%.

With `CCCC(CCC)C(=O)O` [VPA, valproic acid] as the compound, how does the “Myelosuppression induced by VPA” value ([4]; doses up to 240 mg/kg/day, day 3 vs day 1 WBC and neutrophils) read?
The value was “does not induce any significant myelosuppression”.

What about the “Potentiation of DOX induced myelosuppression” value ([4]; nadir WBC and neutrophil count day 7 post DOX vs VPA dose) of the same compound?
Its value is “no potentiation of DOX induced myelosuppression”.

And the “Grade 3 metabolic event (ALKP > 5× ULN)” value ([2]; 180/90 mg/kg cohort, patient with Stage 5 lymphoma)?
Its value is “single Grade 3 metabolic event”.

What about the “Grade 2 anorexia” value ([2]; 210/105 mg/kg cohort) of the same compound?
The value was “single Grade 2 anorexia”.

What about the Dose limiting toxicities ([2]; dogs at 240 mg/kg/day) of the same compound?
Its Dose limiting toxicities is “no dose limiting toxicities”.

What about the Tolerability ([2]; oral VPA, all dose-escalation cohorts) of the same compound?
The Tolerability was “well tolerated in all dose-escalation cohorts”.

And the “Maximum tolerated dose (MTD)” value ([2]; oral VPA, cohorts up to 240/120 mg/kg loading/maintenance)?
Its value is “No maximum tolerated dose (MTD) was reached”.

And the “VPA dose that can be administered prior to a standard dose of DOX” value ([2]; oral divalproex for 48 h before DOX, tumor-bearing dogs)?
The value was “up to 240 mg/kg/day”.

And the “Trough serum VPA level reached” value [5]?
Its value is “up to 0.5 mM”.

What about the “Effect of VPA pre-treatment on sensitivity to doxorubicin” value ([6]; canine and human osteosarcoma cells) of the same compound?
The value was “results in sensitization to doxorubicin”.

What about the “VPA level capable of chemosensitization in vitro” value ([6]; previous work) of the same compound?
Its value is 0.5 mM.

What about the “Correlation of fold change in PBMC histone H3 acetylation with trough VPA levels” value [7] of the same compound?
The value was “did not correlate”.

And the “MTD in human Phase I studies” value [8]?
Its value is 140 mg/kg/day.

— publication PMC2948605 (Clinical cancer research : an official journal of the …, 2010)
